Tests used:
[1] = molecular target: T1, EUGO-His (eugenol oxidase) (Rhodococcus jostii, UniProt Q0SBK1); experiment: flavin absorption spectrum; trichloroacetic acid precipitation; assay type: binding; conditions: covalent; co-purified
T1 construct: gene RHA1_ro03282; E. coli TOP10; covalent FAD; EUGO dimeric
T1 sequence (Q0SBK1 1-526): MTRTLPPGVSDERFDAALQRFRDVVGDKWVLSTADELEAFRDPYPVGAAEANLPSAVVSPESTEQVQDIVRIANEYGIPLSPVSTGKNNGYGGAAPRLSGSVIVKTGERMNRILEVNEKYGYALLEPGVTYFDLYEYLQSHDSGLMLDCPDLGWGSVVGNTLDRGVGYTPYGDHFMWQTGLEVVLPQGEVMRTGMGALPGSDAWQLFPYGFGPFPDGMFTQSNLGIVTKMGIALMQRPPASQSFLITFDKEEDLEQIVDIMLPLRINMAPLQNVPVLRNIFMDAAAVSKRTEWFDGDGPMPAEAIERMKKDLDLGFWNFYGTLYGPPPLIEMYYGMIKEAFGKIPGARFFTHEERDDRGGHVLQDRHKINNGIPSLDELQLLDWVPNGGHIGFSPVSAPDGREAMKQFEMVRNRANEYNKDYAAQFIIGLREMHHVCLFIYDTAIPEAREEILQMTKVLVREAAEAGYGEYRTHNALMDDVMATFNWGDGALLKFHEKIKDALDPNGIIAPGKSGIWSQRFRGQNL

[2] = molecular target: T2, His-VAO (vanillyl alcohol oxidase) (Penicillium simplicissimum, UniProt P56216); experiment: as above; assay type: binding; conditions: covalent; co-purified
T2 construct: gene VAOA; N-terminal 6xHis tag plus single Gly, tag kept; codon-optimised, E. coli BL21; covalent FAD; VAO predominantly octameric
T2 sequence (P56216 whole entry): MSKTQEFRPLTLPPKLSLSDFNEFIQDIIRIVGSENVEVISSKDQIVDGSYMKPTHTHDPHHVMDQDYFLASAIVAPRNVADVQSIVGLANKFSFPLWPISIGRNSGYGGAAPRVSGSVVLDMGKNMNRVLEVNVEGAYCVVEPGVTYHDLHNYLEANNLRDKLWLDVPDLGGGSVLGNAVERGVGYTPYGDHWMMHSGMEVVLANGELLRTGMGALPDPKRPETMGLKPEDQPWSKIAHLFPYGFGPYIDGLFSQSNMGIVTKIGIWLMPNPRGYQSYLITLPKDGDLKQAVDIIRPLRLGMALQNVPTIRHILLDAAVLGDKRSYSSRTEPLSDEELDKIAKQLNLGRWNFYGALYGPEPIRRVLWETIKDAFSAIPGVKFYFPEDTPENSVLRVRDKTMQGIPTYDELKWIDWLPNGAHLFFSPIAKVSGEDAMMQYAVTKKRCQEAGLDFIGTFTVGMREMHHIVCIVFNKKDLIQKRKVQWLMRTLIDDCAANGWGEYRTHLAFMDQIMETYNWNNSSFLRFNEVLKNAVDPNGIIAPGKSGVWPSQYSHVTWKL

Cc1cc2nc3c(=O)[nH]c(=O)nc-3n(C[C@H](O)[C@H](O)[C@H](O)COP(=O)(O)OP(=O)(O)OC[C@H]3O[C@@H](n4cnc5c(N)ncnc54)[C@H](O)[C@@H]3O)c2cc1C [FAD]
flavin absorption spectrum; trichloroacetic acid precipitation [1]: demonstrating that the flavin cofactor is covalently bound to the protein | flavin absorption spectrum; trichloroacetic acid precipitation [2]: demonstrating that the flavin cofactor is covalently bound to the protein

— PMC6017454, “A Xylenol Orange-Based Screening Assay for the Substrate Specificity of Flavin-Dependent para-Phenol Oxidases” (Molecules : A Journal of Synthetic Chemistry and Natural …, 2018)
